Measurements as given in patent US8900783B2, “Electrophotographic photoreceptor, process cartridge, and image forming apparatus” (Fuji Xerox Co., Ltd., priority 2013, dated 2014).
Where two headings read alike, the source gives them in different places.

Experiment: Evaluation on solubility with respect to solvent
Type: physicochemical
Conditions: organic solvent or mixture, thermodynamic from solid, stirred for one hour, visually checked
Procedure: Here, Compound (C) is a specific non-charge transporting compound which is not the specific position isomer mixture.
First, the Exemplary compounds and Compound (C) are respectively dissolved in tetrahydrofuran, and solubility of the solution is evaluated as follows.
1 g of Compound (C) is added to 10 ml of tetrahydrofuran at 20° C., the mixture is stirred for one hour, and solubility thereof is visually checked. A case where Compound (C) is dissolved is evaluated as A, a case where an insoluble part is slightly observed is evaluated as B, and a case where the solution yields white turbidity is evaluated as C.
In addition, solubility thereof when the solvent is changed from tetrahydrofuran to toluene, xylene, dichloroethane, chloroform, and butyl acetate is evaluated.

Compound `C=Cc1ccc(COc2ccc(C(C)(c3ccc(OCc4ccc(C=C)cc4)cc3)c3ccc(OCc4ccc(C=C)cc4)cc3)cc2)cc1` [Compound (C)] has a solubility at 1 h (1 g added to 10 ml of butyl acetate at 20° C., read-out: Evaluation on solubility Butyl acetate) of under 100 mg/mL, a solubility at 1 h (1 g added to 10 ml of chloroform at 20° C., read-out: Evaluation on solubility Chloroform) of over 100 mg/mL and a solubility at 1 h (1 g added to 10 ml of dichloroethane at 20° C., read-out: Evaluation on solubility Dichloroethane) of over 100 mg/mL. It also gave a solubility at 1 h (1 g added to 10 ml of tetrahydrofuran at 20° C., read-out: Evaluation on solubility Tetrahydrofuran) of over 100 mg/mL, a solubility at 1 h (1 g added to 10 ml of toluene at 20° C., read-out: Evaluation on solubility Toluene) of under 100 mg/mL and a solubility at 1 h (1 g added to 10 ml of xylene at 20° C., read-out: Evaluation on solubility Xylene) of under 100 mg/mL.
